Measurements taken from publication PMC10002548, “Amorphous System of Hesperetin and Piperine—Improvement of Apparent Solubility, Permeability, and Biological Activities” (International Journal of Molecular Sciences, 2023).
Converted amounts (≈) assume the structure as drawn.

Columns and labels:
[1] = Dissolution study (paddle apparatus); format: physicochemical; conditions: phosphate buffer pH 6.8, 37 °C, 50 rpm; raw compound value after one hour
Protocol: (§1) The injection volume differed depending on the assay. […] The method’s duration was 10 min.
(§2) Phosphate buffer at pH 6.8 was prepared according to the following description: in a 1000-mL volumetric flask, we placed 250 mL of 0.2 N potassium dihydrogen phosphate solution, then added 112 mL of 0.2 N sodium hydroxide solution, and filled the mixture up to 1000 mL with distilled water. High-quality pure water was prepared using a Direct-Q 3 UV purification system (Millipore, Molsheim, France, model Exil SA 67120).
The dissolution study was performed on the paddle apparatus. The amount of the compound and systems corresponding to 7.0 mg of each plant-origin active ingredient was added to the dissolution medium. The vessels were filled with 500 mL of phosphate buffer, pH 6.8; the temperature was maintained at 37 °C, and the paddles were set at a stirring speed of 50 rotations per minute. The 2.0 mL samples were withdrawn at predetermined time points with the replacement of equal volumes of temperature-equilibrated media.

[2] = physchem; format: physicochemical; conditions: for solubility thermodynamic at 3 h: pH 6.8, aqueous buffer, thermodynamic from solid
Protocol: as §1, §2
An excess amount of raw compounds and systems was placed in a 10 mL glass tube; then, 2.0 mL of phosphate buffer (pH 6.8) was added and left at room temperature for 3 h.

[3] = in vitro; format: in vitro ADME
Protocol: as §1
The sandwich consists of two 96-well microfilter plates.

[4] = in vitro
Excerpt: For the stationary phase, a Dr. Maisch ReproSil-Pur Basic-C18 100 Å column with 5 µm particle size and 250 × 4.60 mm (Dr. Maisch, Ammerbuch-Entringen, Germany) was used. […] The mobile phase was vacuum-filtered through a 0.45 µm nylon filter (Phenomenex, Torrance, CA, USA). […] The injection volume differed depending on the assay.
The sandwich consists of two 96-well microfilter plates. The PAMPA systems contain two chambers: the donor chamber at the bottom and the acceptor chamber at the top. […] The plates were combined and then incubated for 3 h for both models in a humidity-saturated atmosphere with the temperature set at 37 °C. To assess the apparent permeability coefficient factor (Papp), 5.0 mg of raw compounds were dissolved in 1.0 mL of DMSO. Then, we followed the manufacturer’s guidelines for further performance in the assay. […] In the case of the studied systems, the solutions were first prepared in the same manner as in the solubility study. […] Next, the obtained solution was diluted 1:1 with donor solution for the GIT and BBB assays and placed in the donor compartment. The results were expressed as a concentration in the acceptor solution.

SMILES | piperine dissolved (% of the dose added to the dissolution medium) [1] [%] | Piperine Conc. ([2]; 3 h, pH 6.8) [mg/mL] | solubility thermodynamic at 3 h [2] [µg/mL] | concentration of piperine in the acceptor part, PAMPA GIT ([3]; 3 h, pH 6.8) [ng/mL] | Papp at 3 h ([3]; PAMPA, pH 6.8) [×10⁻⁶ cm/s] | concentration of piperine in the acceptor part, PAMPA BBB ([4]; PAMPA, 3 h, pH 7.4) [ng/mL] | Papp at 3 h ([4]; PAMPA, pH 7.4) [×10⁻⁶ cm/s] | hesperetin dissolved (% of the dose added to the dissolution medium) [1] [%] | Hesperetin Conc. ([2]; 3 h, pH 6.8) [mg/mL] | concentration of hesperetin in the acceptor part, PAMPA GIT ([3]; 3 h, pH 6.8) [ng/mL] | Papp ([3]; PAMPA, raw compound dissolved in DMSO, donor pH ≈ 6.8, 3 h, 37 °C, read-out: apparent permeability coefficient (Papp), PAMPA GIT) [×10⁻⁶ cm/s] | concentration of hesperetin in the acceptor part, PAMPA BBB ([4]; donor pH ≈ 7.4, 3 h, 37 °C) [ng/mL]
O=C(/C=C/C=C/c1ccc2c(c1)OCO2)N1CCCCC1 [Piperine, piperine] | 27.79 ± 3.38 | 0.006 ± 0.001 | 6 ± 1 (≈ 21 µM) | 2010 ± 100 | 37.3 | 1030 ± 104 | 40 | – | – | – | – | –
COc1ccc([C@@H]2CC(=O)c3c(O)cc(O)cc3O2)cc1O [Hesperetin, hesperetin] | – | – | 5 ± 1 (≈ 16.5 µM) | – | – | – | 7.05 | 23.75 ± 2.99 | 0.005 ± 0.001 | 25.8 ± 6.16 | 2.59 | 38.9 ± 16.6
